45 molecules from EP4711368A1 (priority 2023, dated 2024) can be followed below.

Read-outs that look alike come from different tables or passages of the source. Bounds are passed on as bounds.

For data set [1], the system named is SD rats. Particulars: rat, in vivo; for MLD: iv.
For data set [2], the system named is SD rats. Put plainly: animal or person. It counts as in vivo. Particulars: rat, in vivo, iv.
Wherever Onset time is given: test concentration or dose not given here.
Wherever Righting feflex duration is given: test concentration or dose not given here.
Wherever Sedation Duration is given: test concentration or dose not given here.

`Cc1cnc2n1-c1ccc(Br)cc1C(c1ccccn1)=NC2CCC(=O)OC1COC1` (stereo not shown) [Compound 4]: in data set [1], the TI was >1.5 and the MLD is on record as >22.5 mg/kg. For the same molecule, in data set [2], the “Minimal effective anesthetic dose” value amounted to 15.0 mg/kg, the Onset time lay in the range of 0.2 to 0.4 min, the Righting feflex duration was in the range of 1.1 to 3.5 min and the “Sedation Duration” value lay in the range of 4.2 to 10.8 min.
`CC(=O)C(C)(C)OC(=O)CCC1N=C(c2ccccn2)c2cc(Br)ccc2-n2c(C)cnc21` (stereo not shown) [Compound 6]: in data set [1], the TI is given as >3.8 and the MLD is recorded as >5 mg/kg. In data set [2], the “Minimal effective anesthetic dose” value is 1.3 mg/kg, the Onset time fell in the range of 0.3 to 0.8 min, the Righting feflex duration was in the range of 0.6 to 3.4 min and the “Sedation Duration” value fell in the range of 4.0 to 10.7 min.
For the molecule `CN1C(=O)C(CCC(=O)OC2(C)COC2)N=C(c2ccccn2)c2cc(Br)ccc21` (stereo not shown) [Compound 14], in data set [1], the TI is on record as >2 and the MLD is >1 mg/kg. For the same molecule, in data set [2], the “Minimal effective anesthetic dose” value is given as 0.5 mg/kg, the Onset time lay within 0.2 to 0.7 min, the Righting feflex duration lay in the range of 0.6 to 3.2 min and the “Sedation Duration” value lay in the range of 3.5 to 7.0 min.
As to `CN1C(=O)C(CCC(=O)OC2COC2)N=C(c2ccccn2)c2cc(Br)ccc21` (stereo not shown) [Compound 16], in data set [1], the TI is given as >4.5 and the MLD is reported as >22.5 mg/kg. In data set [2], the “Minimal effective anesthetic dose” value was determined as 5.0 mg/kg, the Onset time lay in the range of 0.2 to 0.5 min, the Righting feflex duration is 0.6 to 1.7 min and the “Sedation Duration” value lay in the range of 3.2 to 5.3 min.
In the case of `C#CC(C)(C)OC(=O)CCC1N=C(c2ccccn2)c2cc(Br)ccc2N(C)C1=O` (stereo not shown) [Compound 17], in data set [1], the TI is listed as >3.8 and the MLD was >5 mg/kg. For the same molecule, in data set [2], the “Minimal effective anesthetic dose” value was 1.3 mg/kg, the Onset time is 0.2 to 0.5 min, the Righting feflex duration was in the range of 1.6 to 3.3 min and the “Sedation Duration” value was 6.6 to 9.9 min.
In the case of `CC(=O)C(C)(C)OC(=O)CCC1N=C(c2ccccn2)c2cc(Br)ccc2N(C)C1=O` (stereo not shown) [Compound 18], in data set [1], the TI was >2.4 and the MLD is on record as >1.2 mg/kg. Moreover, in data set [2], the “Minimal effective anesthetic dose” value is 0.5 mg/kg, the Onset time lay within 0.2 to 0.9 min, the Righting feflex duration lay in the range of 0.8 to 4.2 min and the “Sedation Duration” value was in the range of 4.5 to 10.7 min.
As for `C=CC(C)(C)OC(=O)CCC1N=C(c2ccccn2)c2cc(Br)ccc2N(C)C1=O` (stereo not shown) [Compound 19], in data set [1], the TI is reported as >1.9 and the MLD is >1.9 mg/kg. In data set [2], the “Minimal effective anesthetic dose” value amounted to 1.0 mg/kg, the Onset time was 0.4 to 1.0 min, the Righting feflex duration fell in the range of 1.2 to 5.5 min and the “Sedation Duration” value was in the range of 9.7 to 14.8 min.
`C=CC(C)(C)OC(=O)CCC1N=C(c2cccc[n+]2[O-])c2cc(Br)ccc2N(C)C1=O` (stereo not shown) [Compound 20]: in data set [1], the TI is >1.5 and the MLD is given as >22.5 mg/kg. Further, in data set [2], the “Minimal effective anesthetic dose” value is listed as 15.0 mg/kg, the Onset time was 0.3 to 0.5 min, the Righting feflex duration is 4.1 to 6.4 min and the “Sedation Duration” value was 17.0 to 20.3 min.
`COC(=O)CCC1N=C(c2ccccn2)c2cc([N+](=O)[O-])ccc2N(C)C1=O` (stereo not shown) [Compound 27]: in data set [1], the TI is >1.8 and the MLD was >18 mg/kg. Further, in data set [2], the “Minimal effective anesthetic dose” value is on record as 10.0 mg/kg, the Onset time is 0.2 to 0.5 min, the Righting feflex duration lay in the range of 1.3 to 3.9 min and the “Sedation Duration” value fell in the range of 4.4 to 10.7 min.
For the molecule `CCOC(=O)CCC1N=C(c2ccccn2)c2cc([N+](=O)[O-])ccc2N(C)C1=O` (stereo not shown) [Compound 28], in data set [1], the TI is >2.3 and the MLD is >11.3 mg/kg. Moreover, in data set [2], the “Minimal effective anesthetic dose” value worked out at 5.0 mg/kg, the Onset time lay within 0.2 to 0.5 min, the Righting feflex duration was in the range of 0.5 to 1.6 min and the “Sedation Duration” value is 4.1 to 7.3 min.
On to `C#CC(C)(C)OC(=O)CCC1N=C(c2ccccn2)c2cc([N+](=O)[O-])ccc2N(C)C1=O` (stereo not shown) [Compound 32], for which, in data set [1], the TI was found to be 6.0 and the MLD is 30 mg/kg. Further, in data set [2], the “Minimal effective anesthetic dose” value was 5.0 mg/kg, the Onset time lay within 0.2 to 0.4 min, the Righting feflex duration lay in the range of 1.8 to 7.7 min and the “Sedation Duration” value was 21.1 to 45.7 min.
In the case of `C=C1N=C(c2ccccn2)c2cc(Br)ccc2N(C)C1=O` [Compound 36], in data set [1], the TI is 1.9 and the MLD amounted to 18.7 mg/kg. In data set [2], the “Minimal effective anesthetic dose” value was determined as 10.0 mg/kg, the Onset time lay in the range of 0.4 to 0.9 min, the Righting feflex duration lay within 0.7 to 4.1 min and the “Sedation Duration” value was in the range of 8.6 to 14.7 min.
Take `CN1C(=O)C(CO)N=C(c2ccccn2)c2cc(Br)ccc21` (stereo not shown) [Compound 37]: in data set [1], the TI is recorded as >2.0 and the MLD is recorded as >10 mg/kg. In data set [2], the “Minimal effective anesthetic dose” value amounted to 5.0 mg/kg, the Onset time lay within 0.3 to 0.6 min, the Righting feflex duration lay within 0.7 to 5.8 min and the “Sedation Duration” value fell in the range of 15.3 to 21.3 min.
`CCC(=O)OCC1N=C(c2ccccn2)c2cc(Br)ccc2N(C)C1=O` (stereo not shown) [Compound 40]: in data set [1], the TI is recorded as 8.0 and the MLD amounted to 40 mg/kg. Also, in data set [2], the “Minimal effective anesthetic dose” value is recorded as 5.0 mg/kg, the Onset time lay within 0.2 to 0.5 min, the Righting feflex duration lay within 1.3 to 17.2 min and the “Sedation Duration” value was in the range of 40.2 to 364.0 min.
`CN1C(=O)C(CCOC(=O)OC2COC2)N=C(c2ccccn2)c2cc(Br)ccc21` (stereo not shown) [Compound 134] yielded an MLD in data set [1] of 20 mg/kg.
The same measure, in the same setting: with `Cc1cnc2n1-c1ccc(Br)cc1C(c1ccccn1)=NC2CCOCc1ccccc1` (stereo not shown) [Compound 144] the figure was 3.8 mg/kg; with `COC(=O)CCC1N=C(c2ccccn2)c2cc3nc(C(F)(F)F)sc3cc2N(C)C1=O` (stereo not shown) [Compound 180], 40 mg/kg.
On to `CN(C)C(=O)CN1N=C(c2ccccn2)c2cc(Br)ccc2N(C)C1=O` [Compound 258], for which the MLD in data set [1] (SD) is given as 40 mg/kg.
Still for that read-out and setting: with `COC(=O)CCN1N=C(c2ccccn2)c2cc(Br)ccc2N(C)C1=O` [Compound 259] the figure was >20 mg/kg; with `C=CC1(OC(=O)CCN2N=C(c3ccccn3)c3cc(Br)ccc3N(C)C2=O)COC1` [Compound 262], >20 mg/kg; with `CN1C(=O)N(CCC#N)N=C(c2ccccn2)c2cc(Br)ccc21` [Compound 263], 40 mg/kg.
The molecule `CCn1nnc(CCN2N=C(c3ccccn3)c3cc(Br)ccc3N(C)C2=O)n1` [Compound 265] came in with an MLD in data set [1] of 40 mg/kg.
In data set [1], `CCn1nnnc1CN1N=C(c2ccccn2)c2cc(Br)ccc2N(C)C1=O` [Compound 268] yielded an MLD of 40 mg/kg.
As to `CCn1nnc(CN2N=C(c3ccccn3)c3cc(Br)ccc3N(C)C2=O)n1` [Compound 269], the MLD in data set [1] (SD) is reported as >36 mg/kg.
In turn, `COc1cc(CCN2N=C(c3ccccn3)c3cc(Br)ccc3N(C)C2=O)on1` [Compound 270] came in with an MLD in data set [1] (SD) of 29.64 mg/kg.
In data set [1] (SD), `CCOc1cc(CCN2N=C(c3ccccn3)c3cc(Br)ccc3N(C)C2=O)on1` [Compound 271] returned an MLD of 30 mg/kg.
Same read-out and setting: with `CC(C)Oc1cc(CCN2N=C(c3ccccn3)c3cc(Br)ccc3N(C)C2=O)on1` [Compound 272] the figure was 30 mg/kg; with `CCOC(=O)C(C)N1N=C(c2ccccn2)c2cc(Br)ccc2N(C)C1=O` (stereo not shown) [Compound 276], 20 mg/kg.
The same measure, in the same setting: in the case of `CC(C)OC(=O)C(C)N1N=C(c2ccccn2)c2cc(Br)ccc2N(C)C1=O` (stereo not shown) [Compound 277] it was 20 mg/kg.
With `CCOC(=O)C(C(C)C)N1N=C(c2ccccn2)c2cc(Br)ccc2N(C)C1=O` (stereo not shown) [Compound 278], the MLD in data set [1] was 40 mg/kg.
As to `CC(C)C(=O)OC(CN1N=C(c2ccccn2)c2cc(Br)ccc2N(C)C1=O)C(C)C` (stereo not shown) [Compound 280], the MLD in data set [1] (SD) worked out at 10 mg/kg.
As to `CCC(=O)CN1N=C(c2ccccn2)c2cc(Br)ccc2N(C)C1=O` [Compound 281], the MLD in data set [1] (SD) is on record as 40 mg/kg.
In turn, `CCC(CN1N=C(c2ccccn2)c2cc(Br)ccc2N(C)C1=O)OC(=O)C(C)C` (stereo not shown) [Compound 282] displayed an MLD in data set [1] of 15 mg/kg.
Regarding `CN1C(=O)N(CCc2cc(Br)no2)N=C(c2ccccn2)c2cc(Br)ccc21` [Compound 283], the MLD in data set [1] (SD) worked out at 40 mg/kg.
Still for that read-out and setting: in the case of `CN1C(=O)N(CCOCc2ccccc2)N=C(c2ccccn2)c2cc(Br)ccc21` [Compound 285] it was 15 mg/kg.
Molecule `CCN(C(=O)OCN1N=C(c2ccccn2)c2cc(Br)ccc2N(C)C1=O)C(C)C` [Compound 296] displayed an MLD in data set [1] (SD) of 15 mg/kg.
Same read-out and setting: in the case of `CN1C(=O)N(C[n+]2ccccc2)N=C(c2ccccn2)c2cc(Br)ccc21` [Compound 297] it was 5 mg/kg; in that of `CN1C(=O)N(CCOC(=O)CCCl)N=C(c2ccccn2)c2cc(Br)ccc21` [Compound 299], 15 mg/kg; in that of `C=CC(=O)OCCN1N=C(c2ccccn2)c2cc(Br)ccc2N(C)C1=O` [Compound 301], 27.4 mg/kg.
Still for that read-out and setting: with `CC(C)OC(=O)OCCN1N=C(c2ccccn2)c2cc(Br)ccc2N(C)C1=O` [Compound 302] the figure was 20 mg/kg.
In data set [1], `CCOC(=O)CN1N=C(c2ccccn2)c2cc(Br)ccc2N=C1SC` [Compound 306] came in with an MLD of 40 mg/kg.
In data set [1] (SD), `Cc1cnc2n1-c1ccc(Br)cc1C(c1ccccn1)=NN2CCOC(=O)OC(C)C` [Compound 316] returned an MLD of 10 mg/kg.
On the same count and under the same terms, in the case of `Cc1c[n+]2c3n1-c1ccc(Br)cc1C(c1ccccn1)=NN3CC2` [Compound 321] it was 10 mg/kg.
`O=CN1CCN2N=C(c3ccccn3)c3cc(Br)ccc3N=C12` [Compound 322] displayed an MLD in data set [1] of 34 mg/kg.
On to `CN1C2=NCCN2N=C(c2ccccn2)c2cc(Br)ccc21` [Compound 324], for which the MLD in data set [1] (SD) was >15.7 mg/kg.
